According to US9452998B2, “Protein kinase C inhibitors and methods of their use” (NOVARTIS AG, priority 2014, dated 2016):

Experiments:
[1] = Mouse C57BL/6; Dose IV: 1 mg/kg PO: 10 mg/kg
[2] = in vivo; conditions: C57BL/6, mouse
[3] = Rat Wistar-Han; Dose 0.3 mg/kg PO: 3 mg/kg
[4] = in vivo; conditions: Wistar-Han, rat

Nc1ncc(-c2ncccc2OC(F)(F)F)nc1C(=O)Nc1ncccc1N1CCC(N)CC1 [Example 2, 3-amino-N-(3-(4-aminopiperidin-1-yl)pyridin-2-yl)-6-(3-(trifluoromethoxy)pyridin-2-yl)pyrazine-2-carboxamide]
Oral BA (% F) [1]: 6 % F | half-life [2]: 30 min | Vd ([2]; intravenous, 1 mg/kg): 0.4 L/kg | clearance ([2]; intravenous, 1 mg/kg): 14 mL/min/kg | Cmax ([2]; po, 10 mg/kg): 946 nM | Tmax ([2]; po, 10 mg/kg): 18 min | Vss [3]: 1.1 L/kg | AUC ([4]; iv, 0.3 mg/kg): 0.38 µM·h | AUC ([4]; po, 3 mg/kg): 2.77 µM·h | Cmax ([4]; po, 3 mg/kg): 756 nM | Tmax ([4]; po, 3 mg/kg): 90 min
